From US20260374739A1, “SMALL MOLECULAR WEIGHT CHEMICAL COMPOUND TO ANTAGONIZE EPH-EPHRIN TETRAMERIZATION AND INHIBIT BIDIRECTIONAL SIGNALING” (THE BOARD OF REGENTS OF THE UNIVERSITY OF TEXAS SYSTEM, priority 2022, published 2026)

Experiments:
EphrinB3-EphB1 = EphrinB3-EphB1 (Homo sapiens, UniProt P54762); assay: Octet, immobilized human EphrinB3 binding to human EphB1
Protocol: (§1) Studies were conducted to confirm that A20 chemicals can effectively target the human Eph/Ephrin proteins. Octet system was used to first characterize the biophysical interactions of the human B class Eph and Ephrin proteins, and then was tested to assess how A20 may disrupt the interactions. Since the human and rodent proteins are highly conserved, and essentially identical, with EphB2 sharing 99.5% identity between human and mouse, with only 5 of ~1,000 amino acids different, any species-specific differences were not anticipated. Therefore, commercially available human EphrinB1-Fc (EB1), EphrinB2-Fc (EB2), and EphrinB3-Fc (EB3) ectodomain proteins were sparsely immobilized onto biosensors and then exposed to 50 nM of soluble human EphB1-His, EphB2-His, and EphB4-His ectodomains for 800 sec association and 1,000 sec dissociation steps with a total of nine different interactions analyzed. In the absence of A20 chemical, the immobilized human EphrinB proteins bound to their appropriate human EphB target proteins; with EphrinB1 only bound EphB1 and EphB2, EphrinB2 bound all three EphB1, EphB2, and EphB4, and EphrinB3 only bound EphB1 and EphB2 (FIG. 19A-19B).
Addition of compound also altered dissociation kinetics. […] This is referred to as the “unsurmountable” component of the Eph-Ephrin interaction (FIG. 21C). Additionally, AUC data was graphed for these runs (FIG. 21D). […]

EphrinB2-EphB4 = target: T1, EphrinB2-EphB4 (Homo sapiens, UniProt P54760); assay: Octet, immobilized human EphrinB2 binding to 50 nM soluble human EphB4
T1 construct: soluble human EphB1-His, EphB2-His, and EphB4-His ectodomains; commercially available human EphrinB1-Fc (EB1), EphrinB2-Fc (EB2), and EphrinB3-Fc (EB3) ectodomain proteins; purchased
T1 sequence (P54760 16-539 limits assumed): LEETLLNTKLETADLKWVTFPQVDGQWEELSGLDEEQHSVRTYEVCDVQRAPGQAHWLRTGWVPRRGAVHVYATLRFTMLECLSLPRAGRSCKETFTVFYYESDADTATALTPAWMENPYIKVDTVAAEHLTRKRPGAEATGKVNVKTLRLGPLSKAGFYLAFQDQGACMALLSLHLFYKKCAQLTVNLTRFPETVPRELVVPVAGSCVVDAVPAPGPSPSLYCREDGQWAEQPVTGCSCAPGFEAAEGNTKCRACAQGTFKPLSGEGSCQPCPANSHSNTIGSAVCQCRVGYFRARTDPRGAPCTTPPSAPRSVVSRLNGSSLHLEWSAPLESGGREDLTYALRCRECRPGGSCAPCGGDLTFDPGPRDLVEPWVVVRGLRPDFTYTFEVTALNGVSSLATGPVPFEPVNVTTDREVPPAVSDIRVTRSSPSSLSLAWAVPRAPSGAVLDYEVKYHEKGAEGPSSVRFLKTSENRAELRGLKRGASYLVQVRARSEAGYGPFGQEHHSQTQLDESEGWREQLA
Protocol: as §1, with “19A-19B). […]” for “19A-19B).”

EphrinB1-EphB1 = target: T2, EphrinB1-EphB1 (Homo sapiens, UniProt P54762); assay: Octet, immobilized human EphrinB1 binding to human EphB1
T2 sequence (P54762 18-540 limits assumed): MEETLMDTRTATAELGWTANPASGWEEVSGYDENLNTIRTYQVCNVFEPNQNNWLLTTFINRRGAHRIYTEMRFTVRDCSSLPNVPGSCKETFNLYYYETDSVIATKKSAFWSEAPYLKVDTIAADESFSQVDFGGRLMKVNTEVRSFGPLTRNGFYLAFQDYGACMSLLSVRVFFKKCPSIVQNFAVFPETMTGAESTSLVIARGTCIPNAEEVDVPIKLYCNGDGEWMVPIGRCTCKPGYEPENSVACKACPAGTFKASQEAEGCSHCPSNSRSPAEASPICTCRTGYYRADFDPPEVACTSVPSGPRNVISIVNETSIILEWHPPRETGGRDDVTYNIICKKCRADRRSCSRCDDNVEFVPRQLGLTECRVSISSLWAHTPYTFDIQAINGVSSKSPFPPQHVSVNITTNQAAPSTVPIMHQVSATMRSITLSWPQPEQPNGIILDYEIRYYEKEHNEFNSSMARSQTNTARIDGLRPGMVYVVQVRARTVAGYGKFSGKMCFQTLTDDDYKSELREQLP
Protocol: as §1
Addition of compound also altered dissociation kinetics. […] This is referred to as the “unsurmountable” component of the Eph-Ephrin interaction (FIG. 21C). Additionally, AUC data was graphed for these runs (FIG. 21D). […] For EB2-EphB4, the dimer:tetramer ratio was 83:8 in the presence of A20 and was not much different from the no compound control run because it is already a strong dimer-driven interaction. […] A similar though more muted effect of A20 on tetramer accumulation was also observed for the other interactions of immobilized human EphrinB binding to soluble human EphB1 and EphB2 ectodomains (FIG. 22). The inhibitory effect of A20 is strongest on the EB2-EphB2 interaction with absolute IC50 reaching 1 μM, followed by the EB2-EphB1 interaction with absolute IC50-10 μM. […]

[1] = read-out: concentration producing maximum inhibition

SMILES: Oc1c(Br)cc(CN2CCOCC2)c2cccnc12 [Compound 5, 7-bromo-5-(morpholinomethyl)quinolin-8-ol]
- reduction of tetramer formation (EphrinB3-EphB1; EB3-EphB1, A20): 40%
- IC (maximum) (EphrinB3-EphB1; [1]): 10 µM
- absolute IC50 (EphrinB2-EphB4; A20 salt up to 100 μM): absence of an absolute IC50
- association slope (EphrinB2-EphB4; in presence of A20, role: inhibitor, 5° without): 3 °
- reduction of tetramer formation (EphrinB1-EphB1; EB1-EphB1, A20): 15%
- antagonism of EphrinB1/EphrinB3 binding (EphrinB1-EphB1; EphB1/EphB2 with EB1 and EB3, species not given): can also antagonize EphB1/EphB2 proteins from binding to EphrinB1 (EB1) and EphrinB3 (EB3) proteins
- IC (maximum) (EphrinB1-EphB1; [1]): 1 µM
